The subject of data set [1] is RARE-β-galactosidase (F9-RARE-β-galactosidase reporter cell line). Kind of data set: Transcription of RARE-β-galactosidase in F9-RARE-β-galactosidase reporter cell line. It counts as cell-based. Particulars: Mus musculus; media lacking serum. As for the experimental part: Cells were treated with different concentrations of retinoids in media lacking serum, harvested and assayed for β-galactosidase activity. […] The β-galactosidase activity in this cell line reflects the activation of the RARs.

The test system of data set [2] is RARs α, β, or γ. As to conditions: Mangelsdorf et al (14); cited from earlier work.
Data set [3] concerns F9 stem cells. Particulars: refs (37), (38), cited from earlier work.
Data set [4] has as its target T1, RAR-α (Mus musculus, UniProt P11416).
T1 construct: expressed in transfected cells; host or cells: COS-1
T1 sequence (P11416 1-462): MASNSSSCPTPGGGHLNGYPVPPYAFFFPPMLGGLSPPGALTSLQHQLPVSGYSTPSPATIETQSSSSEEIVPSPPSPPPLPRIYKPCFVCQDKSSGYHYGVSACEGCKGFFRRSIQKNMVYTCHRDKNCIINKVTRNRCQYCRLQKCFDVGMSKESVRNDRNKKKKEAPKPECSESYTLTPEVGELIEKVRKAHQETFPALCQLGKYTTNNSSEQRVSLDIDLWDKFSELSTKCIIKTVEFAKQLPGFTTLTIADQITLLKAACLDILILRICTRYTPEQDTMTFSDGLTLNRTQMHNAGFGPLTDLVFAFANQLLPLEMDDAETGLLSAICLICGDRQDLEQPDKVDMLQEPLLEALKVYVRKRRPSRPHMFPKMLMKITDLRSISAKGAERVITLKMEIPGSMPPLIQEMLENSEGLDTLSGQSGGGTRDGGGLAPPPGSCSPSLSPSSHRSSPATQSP
Description: Competitive binding of 3H-all-trans-retinoic acid to RAR-α. As to conditions: concentration to inhibit 50% binding of 3H-all-trans-retinoic acid (10 nM); mean ± SD, at least 3 replicate experiments.
Description: (§5) Retinoids were assayed for their ability to bind members of the family of the retinoic acid receptors, the RARs, as follows:
(§6) COS-1 cells were transfected by DEAE-dextran with pSG5 expression vectors containing cDNAs for mouse RARs α, β, or γ or RXRs α, β, or γ. […] Nucleosol or cytosol fractions were prepared as described in Nervi, C., et al (30) and Nervi, C., et al (31) and stored at -70° C. until use. Aliquots of nucleosol or cytosol were incubated in nuclei lysis buffer as described in Nervi, C., et al (30) with tritiated ligands for 4 h at 4° C. […] For competitive binding assays, the incubations were performed with increasing concentrations of unlabeled competing ligand and a fixed concentration of the radioligand (10 nM ^3 H-retinoic acid). In saturation kinetic studies, incubations were performed in the presence of increasing concentrations of the indicated radioligand. For all binding assays, bound was separated from free radioactivity as described in Levin, A. A., et al (29).

In data set [5] the test system is RXRs α, β, or γ. Description: Inhibition of 3H-9-cis retinoic acid binding to RXRs. Also on record: species or system mouse. The text has this:
See Levin, A. A., et al (29).

Data set [6] concerns cellular retinoic acid binding protein I (CRABP I). Kind of data set: Inhibition of all-trans-3H-retinoic acid binding to CRABP I. Particulars: data not shown.
In data set [7] the test system is Hoxa-1. Description: Hoxa-1 gene expression in F9 stem cells by Northern blot. As to conditions: Mus musculus, F9, 72 h, read-out: Hoxa-1 transcripts induction. It counts as cell-based. The text has this: (§1) Teratocarcinoma stem cells can be induced to differentiate in monolayer culture by retinoic acid over a 3-4 day period into nonmalignant endoderm cells resembling the extraembryonic endoderm of the mouse blastocyst as described in Gudas, L. J., et al (27). The F9 teratocarcinoma stem cell line is used as a model tumor cell differentiation system because F9 stem cells share similar biochemical, immunological and morphological characteristics with early mouse embryonic stem cells and additionally, large numbers of cells can be cultured and experimentally manipulated. The expression of several homeobox genes including Hoxa-1 is induced by RA in mouse teratocarcinoma cell lines as described in LaRosa, G. J., et al (34) and LaRosa, G. J., et al (35). […] See LaRosa, G. L, et al (34). Other genes such as laminin B1 are activated subsequent to the activation of Hox 1.6 by retinoic acid as described in Vasios, G. W., et al (36).

Data set [8] has as its system laminin B1. Description: Laminin B1 gene expression in F9 stem cells by Northern blot. As to conditions: Mus musculus, F9, 72 h, read-out: Laminin B1 expression induction. Format: cell-based.
Source text: as §1

Data set [9] is described as follows: Metabolism of 3H-4-hydroxyretinol in F9 cells (HPLC). It counts as in vitro ADME, mouse. As to conditions: mouse, f9 cells; 50 nM, 15 h; virtually identical in stem and retinoic acid-treated cells; read-out: conversion of 4-hydroxyretinol to 4-oxo-retinol. As for the experimental part:
(§2) ^3 H-4-hydroxyretinol and ^3 H-4-oxo-retinol were purified from RA treated, differentiated F9 cells (ATCC CRL 1720) after the differentiated cells were incubated with ^3 H-retinol for 18 h. The identities of purified ^3 H-4-hydroxyretinol and ^3 H-4-oxo-retinol were verified by matching both the elution times on the HPLC and the spectra of known standards.
(§3) F9 stem cells or retinoic acid-treated cells (72 h) were cultured in the presence of 50 nM of either ^3 H-4-hydroxyretinol or ^3 H-4-oxo-retinol for different periods of time.
(§4) FIGS. 4A-4D depict HPLC analysis after incubation in the presence of 50 nM ^3 H-4-hydroxyretinol for periods of time as indicated and extraction using the method described in McClean, S. W., et al (15). F9 stem cells are shown in FIGS. 4A-4D to convert 4-hydroxyretinol to 4-oxo-retinol. The rate of this conversion was virtually identical in both stem and retinoic acid-treated cells. This rate was calculated to be about 20% in a period of 15 h.

Data set [10] has as its system F9 stem cells. The description is as above. Format: in vitro ADME, mouse. Particulars: besides 4-oxo-retinol; 50 nM. As for the experimental part:
as §2, §3, §4

The test system of data set [11] is advanced head and neck cancer. Kind of data set: Treatment of patients with advanced head and neck cancer. Format: in vivo, human. As to conditions: oral, 100 mg/square meter per day. From the text:
Current systemic chemotherapy regimens are unable to prolong survival of patients with advanced head and neck cancer.

For data set [12], the system named is breast cancer. Description: Treatment of patients with breast cancer. It counts as in vivo, human. As to conditions: oral, 100 mg/square meter per day.
In data set [13] the test system is deep (cystic) acne. Description: Treatment of patients with deep (cystic) acne. It counts as in vivo, human. Particulars: oral, 100 mg/square meter per day. From the text:
A very prolonged remission, and potentially permanent cure can be obtained.

Data set [14] has as its system psoriatic arthritis. Description: Treatment of patients with psoriatic arthritis. Particulars: oral, 50 mg/square meter per day. Format: in vivo, human.
The test system of data set [15] is aging or photodamaged skin. Description: Treatment of patients with aging or photodamaged skin. Format: in vivo, human. As to conditions: oral 100 mg/square meter per day or topical 10 mg per square inch per day, 4 to 8 months.
For data set [16], the target named is T2, RAR-β (Mus musculus, UniProt P22605).
T2 sequence (P22605 1-448 isoform P22605-3): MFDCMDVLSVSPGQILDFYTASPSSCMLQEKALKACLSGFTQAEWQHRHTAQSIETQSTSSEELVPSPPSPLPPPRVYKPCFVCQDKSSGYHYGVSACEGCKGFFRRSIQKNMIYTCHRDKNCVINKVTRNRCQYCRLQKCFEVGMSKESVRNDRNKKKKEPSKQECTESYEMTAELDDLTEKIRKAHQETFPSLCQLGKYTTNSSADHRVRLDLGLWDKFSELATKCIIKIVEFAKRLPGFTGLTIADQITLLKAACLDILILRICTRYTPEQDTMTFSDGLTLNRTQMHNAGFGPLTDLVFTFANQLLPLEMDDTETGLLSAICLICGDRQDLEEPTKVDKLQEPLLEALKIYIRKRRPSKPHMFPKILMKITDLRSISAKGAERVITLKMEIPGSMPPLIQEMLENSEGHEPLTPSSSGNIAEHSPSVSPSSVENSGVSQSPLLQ
Description: Competitive binding of 3H-all-trans-retinoic acid to RAR-β.
Description: as §5, §6

Data set [17] concerns the target T3, RAR-γ (Mus musculus, UniProt P18911).
T3 sequence (P18911 1-458): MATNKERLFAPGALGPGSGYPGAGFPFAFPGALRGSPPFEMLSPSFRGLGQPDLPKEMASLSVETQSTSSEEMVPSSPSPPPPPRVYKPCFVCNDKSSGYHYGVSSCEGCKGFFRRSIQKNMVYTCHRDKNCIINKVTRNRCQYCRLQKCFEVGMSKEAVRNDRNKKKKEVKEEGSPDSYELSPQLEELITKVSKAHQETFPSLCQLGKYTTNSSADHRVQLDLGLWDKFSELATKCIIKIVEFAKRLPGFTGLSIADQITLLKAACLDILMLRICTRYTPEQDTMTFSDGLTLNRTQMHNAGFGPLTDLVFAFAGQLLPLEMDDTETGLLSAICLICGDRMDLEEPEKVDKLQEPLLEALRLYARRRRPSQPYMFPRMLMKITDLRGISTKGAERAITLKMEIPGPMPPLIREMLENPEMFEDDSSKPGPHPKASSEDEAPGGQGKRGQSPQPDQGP
Description: Competitive binding of 3H-all-trans-retinoic acid to RAR-γ.
Description: as §5, §6

Data set [18] relates to RARs α, β, or γ. Kind of data set: Inhibition of 3H-all-trans-retinoic acid binding to RARs (stated for all subtypes together). Particulars: concentrations up to 50,000 nM.
Description: as §5, §6

Structures are written as SMILES.

On to `CC1=C(/C=C/C(C)=C/C=C/C(C)=C/C(=O)O)C(C)(C)CCC1` [RA, all-trans-retinoic acid], for which the EC50 in data set [1] is 0.009 µM. Moreover, in data set [2], the “binding to α-, β- and γ-retinoic acid receptors” value was “binds equally well to α-, β-, and γ-retinoic acid receptors”. Also, the “half-life in differentiated retinoic acid-treated F9 stem cells” value in data set [3] (differentiated, enzyme induced) is less than 3 h. Further, the “half-life in F9 stem cells” value in data set [3] (undifferentiated) is 3 h.

For `CC1=C(/C=C/C(C)=C/C=C/C(C)=C/CO)C(C)(C)CCC1O` (centres unmarked) [4-OH retinol], the IC50 in data set [4] stood at 5 ± 1.4 µM; in data set [16], 3.8 ± 1.1 µM; in [17], 3.4 ± 1.6 µM. Further, the “inhibition of 3H-9-cis retinoic acid binding to RXRs” value in data set [5] (data not shown) is recorded as “Neither the 4-hydroxyretinol nor the 4-oxo-retinol inhibited”. Also, the “inhibition of binding of all-trans-3H-retinoic acid to CRABP I” value in data set [6] was “unable to inhibit”. In [1], this compound showed an EC50 of 0.076 µM. Also, the fold induction at 1 µM in [7] was 9; in [8], 3. Also, the metabolised at 15 h, 0.05 µM in [9] is roughly 20%. Further, the “other metabolites of 4-hydroxyretinol” value in [10] is “No other metabolite”. The “tumor burden, head and neck cancer” value in data set [11] was “reduced tumor burden”. Also, the “survival beyond the median” value in data set [11] (and/or reduced tumor burden) is 4-6 months. In data set [12], the “tumor burden, breast cancer” value is recorded as “reduced tumor burden”. In data set [13] (end of 3 to 6 months), the “mean reduction in lesion counts” value was “greater than 85%”. Further, the acne clearance entry in [13] (after discontinuation) was “in some cases complete clearance occurs”. Also, in [14], the psoriatic arthritis symptoms result is “fewer tender joints and a decreased duration of morning stiffness”. The “wrinkles, smoothness, pigmented areas of skin” value in data set [15] is “fewer and reduced depth of wrinkles, increased smoothness of the skin, and a reduction in pigmented areas of the skin”.

For `CC1=C(/C=C/C(C)=C/C=C/C(C)=C/CO)C(C)(C)CCC1` [retinol, reference compound], the “inhibition of 3H-9-cis retinoic acid binding to the RXRs” value in data set [5] (concentrations up to 50,000 nM) is reported as “no apparent inhibition”. The EC50 in data set [1] is greater than 3 µM. Further, the fold induction at 1 µM in data set [7] was 4; in data set [8] it was 2. Further, the “inhibition of all-trans-3H-retinoic acid binding to any of the RARs” value in data set [18] is given as “no apparent inhibition”.

The EC50 is the concentration at which the effect is half-maximal. Read a low EC50 as a more potent agent. By IC50 is commonly meant the concentration that inhibits the measured activity by half.

These data come from patent US5962534A, “Regulating gene expression using retinoids with CH2 OH or related groups at the side chain terminal position” (Cornell Research Foundation, Inc., priority 1997, dated 1999).
